In assay [1] the target is T1, mycobacterial isocitrate lyase (ICL1, Rv0467) (Mycobacterium tuberculosis, UniProt P9WKK7).
T1 construct: His tag (from pET-28b(+)); made in house; host or cells: E. coli BL21(DE3), pET-28b(+) plasmid
T1 sequence (P9WKK7 1-428): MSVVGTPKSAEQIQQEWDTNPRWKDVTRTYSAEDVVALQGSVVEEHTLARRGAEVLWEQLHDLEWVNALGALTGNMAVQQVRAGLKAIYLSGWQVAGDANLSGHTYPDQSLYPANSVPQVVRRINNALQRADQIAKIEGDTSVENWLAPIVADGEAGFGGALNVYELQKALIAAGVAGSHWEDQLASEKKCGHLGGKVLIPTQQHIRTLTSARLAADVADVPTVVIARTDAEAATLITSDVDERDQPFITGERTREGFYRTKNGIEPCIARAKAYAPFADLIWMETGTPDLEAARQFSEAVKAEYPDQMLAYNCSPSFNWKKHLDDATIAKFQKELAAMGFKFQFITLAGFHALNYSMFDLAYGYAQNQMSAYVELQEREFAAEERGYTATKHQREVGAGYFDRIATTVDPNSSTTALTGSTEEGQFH
The experiment in a line: Isocitrate lyase inhibition assay (ICL1). The class given is biochemical, Mycobacterium tuberculosis H37Rv. The note with it: 10 μmol/L; read-out: % ICL inhibition at 10 μmol/L (± standard deviation).

The subject of assay [2] is Mycobacterium tuberculosis 331/88 (H37Rv). Description: Antimycobacterial MIC micromethod, Šula's medium. The assay is classed as cell-based.
The test system of assay [3] is Mycobacterium kansasii 235/80. Description: Antimycobacterial MIC micromethod. The assay is classed as cell-based. The note with it: read-out: MIC M. kansasii 235/80.
The next assay concerns Mtb. Praha 1. The experiment in a line: microbe, parasite or virus in culture. The class given is cell-based. The settings on record: Mycobacterium tuberculosis, read-out: MIC Mtb. Praha 1.
Assay [4] relates to Mycobacterium avium 330/88. Description: Antimycobacterial MIC micromethod. The class given is cell-based.
Assay [5] relates to Mycobacterium tuberculosis, M. avium and M. kansasii. Description: Antimycobacterial MIC, summary over all mycobacterial strains. The assay is classed as cell-based.
The test system of another assay is Mtb. 7357/1988. Description: microbe, parasite or virus in culture. The note with it: Mycobacterium tuberculosis, read-out: MIC Mtb. 7357/1988. The assay is classed as cell-based.
In another assay the test system is Mtb. Praha 131 (XDR-TB). Description: microbe, parasite or virus in culture. The class given is cell-based. The note with it: Mycobacterium tuberculosis, read-out: MIC Mtb. Praha 131 (XDR-TB).
The test system of assay [6] is M. kansasii 6509/96 (clinically isolated strain). Description: Antimycobacterial MIC micromethod. The class given is cell-based. The settings on record: Mycobacterium kansasii, read-out: MIC M. kansasii 6509/96.
In a further assay the test system is Mtb. 9449/2006. The experiment in a line: microbe, parasite or virus in culture. The class given is cell-based. The note with it: Mycobacterium tuberculosis, read-out: MIC Mtb. 9449/2006.
The next assay relates to Mtb. 53/2009. The experiment in a line: microbe, parasite or virus in culture. The settings on record: Mycobacterium tuberculosis, read-out: MIC Mtb. 53/2009. The assay is classed as cell-based.
The test system of a further assay is Mtb. 234/2005. Description: microbe, parasite or virus in culture. The class given is cell-based. The settings on record: Mycobacterium tuberculosis, read-out: MIC Mtb. 234/2005.
A further assay relates to HepG2 cells. The experiment in a line: Cytotoxicity evaluation (CellTiter 96 MTS). The class given is cell-based, human. The settings on record: Homo sapiens, read-out: IC50 HepG2. The method in brief: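 Human HepG2 cells (passages 21–24) seeded 1 × 10^4/well, treated next day with 0.01–20 µM compound (4-(trifluoromethyl)benzoic acid 10–4,000 µM), triplicates, 24 h at 37 °C. MTS reduction read at 490 nm after 2 h; IC50 = concentration cutting viability to 50% of control.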

Another assay has as its system M. kansasii. The experiment in a line: Antimycobacterial MIC, summary for M. kansasii. The assay is classed as cell-based. The settings on record: Mycobacterium kansasii, both strains; read-out: MICs towards M. kansasii.
For assay [7], the system named is eight Gram-positive and Gram-negative strains. Description: Antibacterial microdilution, summary over eight strains. The assay is classed as cell-based. The note with it: read-out: MIC, antibacterial action. The protocol:
The in vitro antibacterial activity was assayed against eight Gram-positive and Gram-negative strains: Staphylococcus aureus CCM 4516/08, methicillin-resistant Staphylococcus aureus H 5996/08 (MRSA), Staphylococcus epidermidis H 6966/08, Enterococcus sp. J 14365/08; Escherichia coli CCM 4517, Klebsiella pneumoniae D 11750/08, ESBL-positive Klebsiella pneumoniae J 14368/08, and Pseudomonas aeruginosa CCM 1961.
The microdilution broth method modified according to standard M07-A07 in Mueller-Hinton broth (HiMedia Laboratories, Mumbai, India) adjusted to pH 7.4 (±0.2) was used. The tested compounds were dissolved in DMSO to the final concentrations ranging from […]. Benzylpenicillin (penicillin G) was used as a comparative drug. Bacterial inoculum in sterile water was prepared to match 0.5 McFarland scale ([…]). The minimum inhibitory concentrations were assayed as 90% (IC90) or higher reduction of growth when compared to the control. The determination of results was performed visually and spectrophotometrically (at 540 nm). The values of MICs were determined after 24 and 48 h of incubation in the darkness at 35 °C (±0.1) in a humid atmosphere.
(In general: Dilution methods test growth across graded concentrations, often in twofold steps.)

[8] abbreviates: 336 h, 14 d, read-out: MIC Mtb. 331/88.
Where [9] appears, read: 504 h, 21 d, read-out: MIC Mtb. 331/88.

Converted amounts (≈) assume the structure as drawn. Like-named read-outs stand apart in the source and are kept apart here.

Usually IC50 stands for the concentration needed to halve the response being measured. `O=C(Oc1ccc(Br)cc1C(=O)Nc1ccc(C(F)(F)F)cc1)c1ccc(C(F)(F)F)cc1` [1r]: the inhibition at 10 µM in [1] is no less than 20%. For the same compound, the MIC was 1 µM (≈ 0.532 µg/mL) in assay [2] (setting [8]); 1 µM (≈ 0.532 µg/mL) in [2] (setting [9]); 1 µM (≈ 0.532 µg/mL) in assay [2] (time not stated, read-out: MIC against M. tuberculosis); 1 µM (≈ 0.532 µg/mL) in assay [3] (235/80, 168 h, 7 d); 2 µM (≈ 1.06 µg/mL) in assay [3] (235/80, 336 h, 14 d); 4 µM (≈ 2.13 µg/mL) in [3] (235/80, 504 h, 21 d). In addition, the MIC in the assay with Mtb. Praha 1 (336 h) was 0.5 µM (≈ 0.266 µg/mL); with Mtb. Praha 1 (504 h), 1 µM (≈ 0.532 µg/mL); in assay [4] (330/88, 336 h, 14 d) it was 2 µM (≈ 1.06 µg/mL); in assay [4] (330/88, 504 h, 21 d) it was 4 µM (≈ 2.13 µg/mL); in assay [5] (range over all strains and times, read-out: MICs against all mycobacterial strains), 1 to 4 µM (≈ 0.532 to 2.13 µg/mL); in the assay on Mtb. 7357/1988 (336 h), 1 µM (≈ 0.532 µg/mL). The MIC in the assay on Mtb. 7357/1988 (504 h) was determined as 1 µM (≈ 0.532 µg/mL); with Mtb. Praha 131 (XDR-TB) (336 h), 0.5 µM (≈ 0.266 µg/mL); in the assay with Mtb. Praha 131 (XDR-TB) (504 h), 1 µM (≈ 0.532 µg/mL); in [6] (168 h, 7 d) it was 1 µM (≈ 0.532 µg/mL); in assay [6] (336 h, 14 d), 2 µM (≈ 1.06 µg/mL); in assay [6] (504 h, 21 d) it was 4 µM (≈ 2.13 µg/mL). In addition, the MIC in the assay with Mtb. 9449/2006 (336 h) was determined as 1 µM (≈ 0.532 µg/mL); in the assay with Mtb. 9449/2006 (504 h), 1 µM (≈ 0.532 µg/mL); in the assay with Mtb. 53/2009 (336 h), 1 µM (≈ 0.532 µg/mL); in the assay with Mtb. 53/2009 (504 h), 2 µM (≈ 1.06 µg/mL); in the assay on Mtb. 234/2005 (336 h), 0.5 µM (≈ 0.266 µg/mL); in the assay with Mtb. 234/2005 (504 h), 1 µM (≈ 0.532 µg/mL). Further, the half-inhibitory concentration (IC50) in the assay on HepG2 cells (HepG2, 24 h) is 2.03 µM.
`O=C(O)c1ccc(C(F)(F)F)cc1` [CF3-BA, 4-(trifluoromethyl)benzoic acid, reference compound]: the MIC was greater than 1000 µM in assay [2] (setting [8]); greater than 1000 µM in assay [2] (setting [9]); 1000 µM (≈ 190 µg/mL) in assay [3] (235/80, 168 h, 7 d); greater than 1000 µM in [3] (235/80, 336 h, 14 d); greater than 1000 µM in assay [3] (235/80, 504 h, 21 d); greater than 1000 µM in assay [4] (330/88, 336 h, 14 d). Besides, the MIC in assay [4] (330/88, 504 h, 21 d) is greater than 1000 µM; with M. kansasii, no less than 250 µM; in assay [6] (168 h), 250 µM (≈ 47.5 µg/mL); in assay [6] (336 h, 14 d), 1000 µM (≈ 190 µg/mL); in assay [6] (504 h, 21 d), 1000 µM (≈ 190 µg/mL); in assay [7], greater than 500 µM. The “susceptibility of other mycobacteria” value in [5] (at 1,000 µmol/L, mycobacteria other than M. kansasii) is given as “completely insusceptible”. Also, the IC50 with HepG2 cells (HepG2, 24 h, cytotoxicity) is 564 µM.

The values are drawn from paper PMC6270420, “Antibacterial Activity of Salicylanilide 4-(Trifluoromethyl)benzoates” (Molecules, 2013).
